Experimental data published in the NIST ThermoML archive (doi:10.1021/je201334p).

How the values were obtained:
[1] = refractive index (Na D-line) (dimensionless); xn = mol fraction of the nth substance listed; conditions: 101 kPa, Liquid, Standard Abbe refractometry
[2] = xn = mol fraction of the nth substance listed; conditions: 101 kPa, Liquid; for speed of sound: Sing-around technique in a fixed-path interferometer; for mass density: Vibrating tube method

CCCCn1cc[n+](C)c1.O=S(=O)([O-])C(F)(F)F [1-butyl-3-methylimidazolium trifluoromethanesulfonate] + O
Conditions | mass density, 288.15 K [kg/m3] | mass density, 298.15 K [kg/m3] | mass density, 308.15 K [kg/m3] | refractive index, 288.15 K | refractive index, 298.15 K | refractive index, 308.15 K | speed of sound, 288.15 K [m/s] | speed of sound, 298.15 K [m/s] | speed of sound, 308.15 K [m/s]
[1], x2 = 0 | – | – | – | 1.44032 | 1.43755 | 1.43475 | – | – | –
[1], x2 = 0.1348 | – | – | – | 1.43903 | 1.43626 | 1.43343 | – | – | –
[1], x2 = 0.2028 | – | – | – | 1.43815 | 1.43535 | 1.43259 | – | – | –
[1], x2 = 0.2056 | – | – | – | 1.4381 | 1.4353 | 1.43253 | – | – | –
[1], x2 = 0.3083 | – | – | – | 1.43654 | 1.43373 | 1.4309 | – | – | –
[1], x2 = 0.4985 | – | – | – | 1.43224 | 1.4294 | 1.42655 | – | – | –
[1], x2 = 0.6062 | – | – | – | 1.42835 | 1.42546 | 1.42268 | – | – | –
[1], x2 = 0.7015 | – | – | – | 1.42301 | 1.42021 | 1.41759 | – | – | –
[1], x2 = 0.8064 | – | – | – | 1.41332 | 1.41072 | 1.40803 | – | – | –
[1], x2 = 0.8998 | – | – | – | 1.39564 | 1.39323 | 1.39103 | – | – | –
[1], x2 = 0.9309 | – | – | – | 1.38516 | 1.3829 | 1.38091 | – | – | –
[1], x2 = 0.9548 | – | – | – | 1.37365 | 1.37157 | 1.36969 | – | – | –
[2], x2 = 0 | 1307.5 | 1299.55 | 1291.62 | – | – | – | 1414.3 | 1391.4 | 1369.1
[2], x2 = 0.1348 | 1303.64 | 1295.68 | 1287.74 | – | – | – | 1419.7 | 1396.7 | 1374.8
[2], x2 = 0.2028 | 1301.3 | 1293.3 | 1285.33 | – | – | – | 1422.9 | 1400.2 | 1378.1
[2], x2 = 0.2056 | 1301.2 | 1293.22 | 1285.23 | – | – | – | 1423.2 | 1400.9 | 1379.4
[2], x2 = 0.3083 | 1296.7 | 1288.66 | 1280.65 | – | – | – | 1429.3 | 1406.7 | 1384.6
[2], x2 = 0.4985 | 1284.57 | 1276.45 | 1268.32 | – | – | – | 1445 | 1422.8 | 1400.9
[2], x2 = 0.6062 | 1273.42 | 1265.25 | 1257.08 | – | – | – | 1458 | 1436.4 | 1414.8
[2], x2 = 0.7015 | 1258.59 | 1250.44 | 1242.22 | – | – | – | 1473.8 | 1453.1 | 1432
[2], x2 = 0.8064 | 1231.3 | 1223.33 | 1215.23 | – | – | – | 1496.3 | 1478.8 | 1460
[2], x2 = 0.8998 | 1180.1 | 1172.98 | 1165.56 | – | – | – | 1523.9 | 1513.4 | 1500.5
[2], x2 = 0.9309 | 1149.84 | 1143.39 | 1136.56 | – | – | – | 1533.1 | 1527.6 | 1519.2
[2], x2 = 0.9548 | 1116.26 | 1110.62 | 1104.51 | – | – | – | 1540 | 1540.1 | 1536.7
